In data set [1] the test system is E. coli O157:H7 strain 86-24. On the set-up: species or system piglets. To be noted: in vivo.
The conditions of data set [2]: in vivo.

“Also recorded” adds a separate entry of the source.

On to `O[C@H]1[C@H]2[C@H](O)CCCN2C[C@H]1O` [swainsonine], for which, in the data set with Vero cells, the “lowest concentration at which a protective effect from co-incubation was observed” value was found to be 0.012 μg/well and the “toxic effects in swainsonine control wells” value was “No toxic effects were observed”. In addition, the “progression and severity of disease / outcome at 68 h post challenge” value in data set [1] was “progression of disease was less rapid and for all except one, much less severe; also recorded: Two of the swainsonine-treated pigs were recovering from the disease by 68 h post challenge”. In addition, the adverse effects result in data set [2] is listed as “no adverse effects”.

Source of the values: patent US6670374B1 (priority 2002, dated 2003).
